Measured values published in ChEMBL document CHEMBL1150437, “Synthesis and neuraminidase inhibition studies of 4-azido, amino, and acetamido substituted sialosides” (Bioorg Med Chem Lett, 1994).

Test system: unidentified influenza virus
Test: Compound was tested for inhibition of Influenza neuraminidase
Assay type: functional, organism-based

| Compound | Ki [µM] |
| --- | --- |
| CC(=O)NC1C(N)CC(SC(C)C2OC(O)C(O)C(O)C2O)(C(=O)O)OC1[C@H](O)[C@H](O)CO (some centres not stated) | 50 |
| CC(=O)N[C@H]1[C@H]([C@H](O)[C@H](O)CO)O[C@@](OC[C@@H]2O[C@H](O)[C@@H](O)[C@@H](O)[C@H]2O)(C(=O)O)C[C@H]1N | 150 |
